System: skin of forearm or forehead of AK patients
Test: Comparison of skin reactions, photographs (FIGS. 3A-4B)
Assay type: in vivo, human
Text: The comparison in FIGS. 3A, 3B, 4A, and 4B illustrates the lack of skin toxicity observed in the treatment of AK with topically administered KX-01 compared to the approved therapy for AK.

O=C(Cc1ccc(-c2ccc(OCCN3CCOCC3)cc2)cn1)NCc1ccccc1 [KX-01]
Skin reaction in the forearm (day 3 and day 5 of treatment): minimal or no adverse skin reactions
Skin reaction in the forehead (day 8 and day 57, subject with 100% response): minimal or no adverse skin reactions
Skin reactions compared with Picato (in vivo): fewer and less severe skin reactions
Efficacy for clearing AK lesions compared with Picato (initial data of Examples 1, 2a, 2b): may be similar
